# Source: patent publication US9205073B2, “Method for treating virus infection using derivative of aniline” (CHINA MEDICAL UNIVERSITY, priority 2014, dated 2015)
# Tests used:
# EV71 = assay: Enterovirus infection-induced cytopathic effect in RD cells; type: cell-based, enterovirus type 71; conditions: infected 36 hours, M.O.I.=0.1, compound 125 μM
# Description: RD cells were cultured in a 24-well culture plate at an initial density of 3×10^4 per well with 1 ml of 2% FBS-containing MEM medium per well. The cells were incubated in an incubator (37° C., 5% CO2) overnight. The medium was removed, and then 1 ml of fresh 2% FBS-containing MEM medium was simultaneously added into each well. The RD cells were infected with EV71 virus strain (M.O.I.=0.1). Different concentrations of compound 1 (final concentrations were 0, 2.5, 25 and 125 μM) were added into different wells. The RD cells were incubated in an incubator (37° C., 5% CO2) for 36 hours, and then their morphology was observed by photography.
# DEN2 = assay: Dengue virus infection-induced cytopathic effect in BHK-21 cells; type: cell-based, dengue virus type 2; conditions: infected 72 hours, M.O.I.=0.1, compound 25 μM
# Description: BHK-21 cells were cultured in a 24-well culture plate at an initial density of 3×10^4 per well with 1 ml of 2% FBS-containing MEM medium per well. The cells were incubated in an incubator (37° C., 5% CO2) overnight, and the medium was removed until the cells adhered to the plate. Then, 1 ml of fresh 2% FBS-containing MEM medium was simultaneously added into each well of the culture plate; the cells were infected with the DEN2 virus strain (M.O.I.=0.1); different concentrations of compound 1 (the final concentrations were 0, 2.5 and 25 μM, respectively) were added into different wells. BHK-21 cells were incubated in an incubator (37° C., 5% CO2) for 72 hours, and then their morphology was observed by photography.
# [1] = tested on: PKR, OAS, IFN-α and interferon receptor; assay: Real-time PCR of anti-virus gene expression in JEV T1P1-infected TE671 cells; type: cell-based; conditions: JEV T1P1-infected TE671 cells (M.O.I.=1), 8 hours, compound 125
# Description: TE671 cells were cultured in a 6-well culture plate in accordance with the experimental conditions. The next day, TE671 cells were infected with the JEV T1P1 virus strain (M.O.I.=1), and various concentrations (the final concentration of compound 1 were about 0 or 125 respectively) of compound 1 were added into different wells simultaneously. The cells were then incubated in an incubator (37° C., 5% CO2) for 8 hours, and then collected. The cells were re-suspended with PBS and precipitated by centrifugation (2000 rpm, 5 minutes), and then extracted by Pure Link RNA Mini Kit to obtain the RNA. If the obtained RNA was desired to be stored at −20° C., then the RNA would have to reverse transcribed into cDNA using the following reverse transcription PCR (RT-PCR) steps: i) 11 μl RNA was placed into a microtube, and put into a 55° C. […]
# The expression of anti-virus genes was analyzed by real-time PCR. […] Then, the amount of fluorescence of each cycle was determined by ABI Prism 7500 software. The fold difference of each gene as compared to the control group was calculated by using Ct to calculate ΔCt and ΔΔCt (i.e., ΔCt=Ct. exp−Ct. control, ΔΔCt=ΔCt. exp−ΔCt. mock). Then, 2^−ΔΔCt can thereby be calculated.
structure (smiles),measurement,setting,value
"CCOC(=O)C1=C(Nc2cc(C)cc(C)c2)OCC1=O [Compound 1, ethyl 2-(3′,5′-dimethylanilino)-4-oxo-4,5-dihydrofuran-3-carboxylate]",EV71-induced cytopathic effect,EV71,effectively inhibited
same,DEN2-induced cytopathic effect,DEN2,effectively inhibited
same,"relative gene expression levels of PKR, OAS, IFN-α and interferon receptor",[1],increase
